Test results reported in patent US20200000721A1, “AQUEOUS COMPOSITIONS AND ASSOCIATED CREAM FORMULATIONS” (MedReleaf Corp., priority 2018, published 2020).

Tested on: microbial growth in the aqueous composition
Settings: 0.09% in aqueous composition of Table 6
Method: Microbiological testing was conducted according to USP <51> and USP (Antimicrobial Effectiveness Test) and USP <61> and <62> (Suitability Testing) in order to compare the effectiveness of 1) 0.09% potassium sorbate 2) 0.045% potassium sorbate and 0.045% Euxul™ 9010 and 3) 0.09% Euxul™ 9010 as an antimicrobial agent for prohibiting microbial growth in the aqueous composition described in Table 6.

## C/C=C/C=C/C(=O)[O-].[K+] [potassium sorbate]
  effectiveness as antimicrobial agent (comparison): as effective as Euxul™ 9010 and/or the combination of Euxul™ 9010 and potassium sorbate
